Measurements published in publication PMC11642486 (International Journal of Molecular Sciences, 2024).
pIC50: −log10 of the molar value. Where a name gives a salt, the structure may show the parent alone. Read-outs that look alike come from different tables or passages of the source.

Experiments:
neurons = assay: RNA-sequencing of drug-treated neurons; assay type: cell-based, rat; settings: 30 µM DMF
Nrf2 [1] = assay: Nrf2 nuclear translocation by immunofluorescence in neurons; assay type: cell-based, Wistar rats; settings: 4 h treatment, significant vs vehicle
Experimental: (§1) Primary hippocampal neurons were obtained from Wistar rats on embryonic day 18. Briefly, embryos were removed from the womb under sterile conditions and decapitated to dissect the brains. Hippocampi were isolated at 4 °C in Hank’s balanced salt solution (HBSS) without calcium and magnesium, supplemented with 10 mM HEPES buffered saline and 100 U/mL of penicillin-streptomycin. The hippocampi were mechanically disaggregated using fire-polished pipettes and plated for 2–4 h in neuronal plating medium composed of minimum essential medium (MEM) enriched with 0.6% D-glucose and 10% horse serum. Neuronal plating medium was replaced by neurobasal medium supplemented with 1X B-27 and 2 mM L-glutamine. Neurons were grown for 7 days prior to the experiments. For the microglial cells, we used the BV-2 immortalized murine cell line. Microglial cells were cultured in Dulbecco’s modified Eagle medium (DMEM) with 4.5 g/L D-glucose, 2 mM L-glutamine, 100 U/mL of penicillin-streptomycin, and 10% heat-inactivated fetal bovine serum. Cells were maintained at 37 °C in a humidified incubator with 5% CO2. All culture media were purchased from Thermo Fisher Scientific (Waltham, MA, USA).
(§2) For the immunofluorescence experiments, neurons and microglia were directly seeded on glass coverslips previously treated with 1 mg/mL of poly-L-lysine. […] After the drug treatments, the cells were fixed on ice with 4% paraformaldehyde for 25 min and then permeabilized and blocked using 0.1% Triton X-100 (10 min) and 5% BSA (30 min), respectively. Cells were then incubated overnight with the primary antibodies and 1% BSA at 4 °C. The primary antibodies anti-Nrf2 (ab1375550) and anti-NF-kB p65 (ab16502) (both from Abcam, Cambridge, United Kingdom) were used at 1:200. After washing with PBS, cells were incubated with the fluorophore-conjugated secondary antibody anti-Rabbit IgG Alexa Fluor 488 (Thermo Fisher Scientific) at 1:500 for 1 h at room temperature. Cells were counterstained with the TO-PRO fluorescent dye (Thermo Fisher Scientific) to visualize the cell nuclei. Images were captured using the confocal microscope Leica TCS SP5 (Leica Microsystems, Wetzlar, Germany). For each experimental condition, five random fields were captured and analyzed using ImageJ software (National Institutes of Health, Maryland, DC, USA). Activation of Nrf2 or NF-kB was defined as nuclear translocation, measured by the increase in the mean fluorescence intensity (MFI) in the nucleus. Each experiment was repeated three times.

[2] = test system: BV-2 immortalized murine cell line (microglia); assay: Cell viability assay (CellTiter-Glo) in microglia; assay type: cell-based; settings: microglia, concentration inhibiting cellular proliferation by 50% vs vehicle, read-out: IC50 (cell viability)
Experimental: Cell viability was measured at 24, 48, and 72 h of treatment with different drug concentration ranges. For each cellular type, we determined the half-maximal inhibitory concentration (IC50) of each drug. In neurons, as a non-proliferative primary culture, the IC50 was defined as the drug concentration able to diminish cell viability by 50% with respect to the vehicle-treated control. In microglia, as a proliferative cell line, the IC50 was defined as the drug concentration able of inhibiting by 50% cellular proliferation with respect to the vehicle-treated control.
as §1
(§3) Neurons and microglia were both seeded at a density of 10,000 cells/well in 96-well plates previously treated with 0.1 mg/mL of poly-L-lysine (Sigma-Aldrich). […] Cell viability was determined at 24, 48, and 72 h. The percentage of viable cells was quantified using the CellTiter-Glo® Luminescent Cell Viability Assay (Promega Biotech Ibérica, Madrid, Spain) following the instructions by the manufacturer. The […] of the cell culture media alone was subtracted as the background from all readings. Cell viability in the drug-treated cells was normalized to their respective vehicle controls. Experiments were repeated three times, each condition in triplicate.
(§4) Statistical analysis was performed using Prism 8 software (GraphPad, Boston, MA, USA). For the cell viability assays, a linear regression analysis was made with logarithmic transformation of the drug concentrations in the X-axis. The coefficient of determination (R²) was calculated as a measurement of the adjustment of the data to the regression model. The Mann–Whitney test was used to compare two different conditions. The Kruskal–Wallis test was used to compare the different concentrations of each drug against the vehicle or LPS. Statistical significance was established at p < 0.05.

[3] = test system: nitric oxide (NO) production in microglia; assay: Nitric oxide production (Griess Reagent System) in LPS-activated microglia; assay type: cell-based, murine
Experimental: DMF and MMF (both from Sigma-Aldrich, Saint Louis, MO, USA) were prepared as stock solutions in dimethyl sulfoxide (DMSO); CBD (Cayman chemical, Ann Arbor, MI, USA) was prepared in ethanol (EtOH). Lipopolysaccharide (LPS) from Escherichia coli 026:B6 in an aqueous solution (Thermo Fisher Scientific) was used as proinflammatory stimuli in microglia at a final concentration of 600 ng/mL. For the LPS experiments, the concentration of fetal bovine serum in the microglia culture medium was reduced to 0.1% immediately before drug treatment. All of the compounds were titrated in their respective vehicle and diluted into the culture media for cell treatments. The final concentration of vehicle (DMSO, EtOH or H2O) was consistent for all treated cells (0.2%).
The concentration of nitrites was measured as an indirect indicator of nitric oxide (NO) production in microglia by using the colorimetric assay Griess Reagent System (Promega Biotech Ibérica, Madrid, Spain). Microglial cells were seeded in 96-well plates, previously treated with 0.1 mg/mL of poly-L-lysine, at a density of 50,000 cells/well. […] The concentration of NO was quantified at a wavelength of 520 nm in an absorbance reader plate. Experiments were repeated three times, each condition in triplicate.

[4] = test system: Primary hippocampal neurons; assay: Cell viability assay (CellTiter-Glo) in neurons; assay type: cell-based, Wistar rats; settings: neurons; for pIC50: concentration diminishing cell viability by 50% vs vehicle, read-out: IC50 (cell viability)
Experimental: Cell viability was measured at 24, 48, and 72 h of treatment with different drug concentration ranges. For each cellular type, we determined the half-maximal inhibitory concentration (IC50) of each drug.
as §1, §3, §4

Nrf2 [5] = assay: Nrf2 nuclear translocation by immunofluorescence in microglia; assay type: cell-based, murine; settings: 4 h treatment, significant vs vehicle
Experimental: as §1
as §2, with “After washing with PBS, cells were incubated with the fluorophore-conjugated secondary antibody anti-Rabbit IgG Alexa Fluor 488 (Thermo Fisher Scientific) at 1:500 for 1 h at room temperature. Cells were counterstained with the TO-PRO fluorescent dye (Thermo Fisher Scientific) to visualize the cell nuclei. Images were captured using the confocal microscope Leica TCS SP5 (Leica Microsystems, Wetzlar, Germany).” left out, “Each experiment was repeated three times.” left out

## COC(=O)/C=C/C(=O)OC [DMF, Dimethyl fumarate]
neurons
  number of DEGs between 24 h and 4 h of treatment (across time): 1276
neurons; 4 h
  Hmox1 expression vs vehicle: 3.9 log2FC
  number of downregulated DEGs vs vehicle: 169
  number of upregulated DEGs vs vehicle: 238
neurons; 4 h, 30 µM MMF, 6 µM CBD
  number of differentially expressed genes (DEGs) vs vehicle: 407
neurons; 24 h
  Nfe2l2 expression vs vehicle: 0.94 log2Fc
neurons; 24 h, 6 µM CBD
  number of downregulated DEGs vs vehicle: 144
  number of upregulated DEGs vs vehicle: 120
neurons; 24 h, 30 µM MMF
  Nqo1 expression vs vehicle: 2.3 log2FC
neurons; 24 h, 30 µM MMF, 6 µM CBD
  number of differentially expressed genes (DEGs) vs vehicle: 264
Nrf2 [1]
  lowest concentration inducing nuclear translocation (activation) of Nrf2: 30 µM
[2]; Mus musculus, Microglia, 24 h, 24 h
  pIC50: 4.43
[2]; Mus musculus, Microglia, 48 h, 48 h
  pIC50: 4.39
[2]; Mus musculus, Microglia, 72 h, 72 h
  pIC50: 4.14
[2]; 24 h
  pIC50: 4.43
[2]; 72 h
  pIC50: 4.14
[3]; LPS + drug, 48 and 72 h, all studied concentrations from 1 µM, LPS alone around 40 µM
  concentration of NO in the supernatant: around 20 µM
[3]; LPS-activated microglia
  lowest concentration inhibiting the production of NO: ≤ 1 µM
[4]; Rattus norvegicus, Hippocampal neuron, 24 h, 24 h
  pIC50: 3.99
[4]; Rattus norvegicus, Hippocampal neuron, 48 h, 48 h
  pIC50: 4.26
[4]; Rattus norvegicus, Hippocampal neuron, 72 h, 72 h
  pIC50: 4.44
[4]; 30 µM
  decrease in cell viability: around 20%
[4]; 24 h
  pIC50: ~4.00
[4]; 72 h
  pIC50: 4.44
Nrf2 [5]
  lowest concentration inducing nuclear translocation (activation) of Nrf2: 10 µM
